Laboratory results from patent publication US10954228B2 (NATIONAL INSTITUTES OF HEALTH, UNITED STATES DEPARTMENT OF …, priority 2016, dated 2021).

Biological target: Human LDHA (Homo sapiens (Human), UniProt P00338)
Assay: human LDHA primary biochemical assay
Settings: biochemical LDHA inhibitory activity, assay of Example 1; activity level classes defined in nM
Description: This example describes a human LDHA primary biochemical assay employed in the characterization of a compound of formula (I) in an embodiment of the invention.
Test compounds were placed in a Greiner Bio-One (Monroe, N.C.) 1536-well black solid bottom assay plate. 200 millimolar (mM) Tris HCl, pH 7.4, 100 micromolar (μM) EDTA and 0.01% TWEEN-20™, final concentration, was used as the assay buffer. The LDHA reagent was 2 nanomolar (nM) Human LDHA (Meridian Life Science, Inc., Memphis, Tenn.), final concentration, in assay buffer. The substrate reagent was 0.06 mM NADH and 0.2 mM sodium pyruvate, final concentration, in assay buffer. The resazurin/diaphorase coupling reagent was 0.037 mM resazurin and 0.133 milligrams per milliliter (mg/mL) diaphorase, final concentration, in assay buffer. The inhibition of LDHA activity was measured by fluorescence emission.

“2-(5-([1,1′-bi(cyclopropan)]-2-yl)-4- (3-fluoro-4-sulfamoylbenzyl)- 3-(3-((5-methylthiophen-2- yl)ethynyl)phenyl)-1H-pyrazol-1- yl)thiazole-4-carboxylic acid [Compound 134]” and `Cc1ccc(C#Cc2cccc(-c3nn(-c4nc(C(=O)O)cs4)c(C(C)C4CC4)c3Cc3ccc([S+](N)(=O)[O-])c(F)c3)c2)s1` (stereo not shown) [Compound 116, 2-(5-(1-cyclopropylethyl)-4-(3-fluoro-4-sulfamoylbenzyl)-3-(3-((5-methylthiophen-2-yl)ethynyl)phenyl)-1H-pyrazol-1-yl)thiazole-4-carboxylic acid] fall in the same range of IC50: 100 to 1000 nM for the first, 100 to 1000 nM for the second.

Compared with `Cc1ccc(C#Cc2cccc(-c3nn(-c4nc(C(=O)O)cs4)c(C(C4CC4)C4CC4)c3Cc3ccc([S+](N)(=O)[O-])c(F)c3)c2)s1` [Compound 126, 2-(5-(dicyclopropylmethyl)-4-(3-fluoro-4-sulfamoylbenzyl)-3-(3-((5-methylthiophen-2-yl)ethynyl)phenyl)-1H-pyrazol-1-yl) thiazole-4-carboxylic acid], `Cc1ccc(C#Cc2cccc(-c3nn(-c4nc(C(=O)O)cs4)c(C(C)(C)C4CC4)c3Cc3ccc([S+](N)(=O)[O-])c(F)c3)c2)s1` [Compound 128, 2-(5-(2-cyclopropylpropan-2-yl)-4-(3-fluoro-4-sulfamoylbenzyl)-3-(3-((5-methylthiophen-2-yl)ethynyl)phenyl)-1H-pyrazol-1-yl) thiazole-4-carboxylic acid] is lower in IC50: 1000 to 57000 nM for the first, 100 to 1000 nM for the second.

Compared with `Cc1ccc(C#Cc2cccc(-c3nn(-c4nc(B(O)O)cs4)c(CC4CC4)c3Cc3ccc(S(N)(=O)=O)c(F)c3)c2)s1` [Compound 135, (2-(5-(cyclopropylmethyl)-4-(3-fluoro-4-sulfamoylbenzyl)-3-(3-((5-methylthiophen-2-yl)ethynyl)phenyl)-1H-pyrazol-1-yl)thiazol-4-yl)boronic acid], `NS(=O)(=O)c1ccc(Cc2c(-c3ccc(F)c(-c4ccc(F)c(F)c4)c3)nn(-c3nc(C(=O)O)cs3)c2CC2CC2)cc1F` [Compound 136, 2-(5-(cyclopropylmethyl)-4-(3-fluoro-4-sulfamoylbenzyl)-3-(3′,4′,6-trifluoro-[1,1′-biphenyl]-3-yl)-1H-pyrazol-1-yl)thiazole-4-carboxylic acid] is lower in IC50: 1000 to 57000 nM for the first, < 100 nM for the second.

`CC(=O)c1cc(-c2nn(-c3nc(C(=O)O)cs3)c(CC3CC3)c2Cc2ccc(S(N)(=O)=O)c(F)c2)ccc1F` [Compound 140, 2-(3-(3-acetyl-4-fluorophenyl)-5-(cyclopropylmethyl)-4-(3-fluoro-4-sulfamoylbenzyl)-1H-pyrazol-1-yl)thiazole-4-carboxylic acid] and `NS(=O)(=O)c1ccc(Cc2c(-c3ccc(F)c(C4=CCCO4)c3)nn(-c3nc(C(=O)O)cs3)c2CC2CC2)cc1F` [Compound 148, 2-(5-(cyclopropylmethyl)-3-(3-(4,5-dihydrofuran-2-yl)-4-fluorophenyl)-4-(3-fluoro-4-sulfamoylbenzyl)-1H-pyrazol-1-yl)thiazole-4-carboxylic acid] cannot be ordered by IC50: < 100 nM for the first, < 100 nM for the second.

`NS(=O)(=O)c1ccc(Cc2c(-c3ccc(F)c(NC(=O)c4ccccc4)c3)nn(-c3nc(C(=O)O)cs3)c2CC2CC2)cc1F` [Compound 152, 2-(3-(3-benzamido-4-fluorophenyl)-5-(cyclopropylmethyl)-4-(3-fluoro-4-sulfamoylbenzyl)-1H-pyrazol-1-yl)thiazole-4-carboxylic acid] and `N[S+](=O)([O-])c1ccc(Cc2c(-c3ccc(F)c(C(=O)N4CCCC4)c3)nn(-c3nc(C(=O)O)cs3)c2CC2CC2)cc1F` [Compound 154] cannot be ordered by IC50: < 100 nM for the first, < 100 nM for the second.

`CC(C)N1CC2(CN(c3cc(-c4nn(-c5nc(C(=O)O)cs5)c(CC5CC5)c4Cc4ccc(S(N)(=O)=O)c(F)c4)ccc3F)C2)C1` [Compound 158, 2-(5-(cyclopropylmethyl)-3-(4-fluoro-3-(6-isopropyl-2,6-diazaspiro[3.3]heptan-2-yl)phenyl)-4-(3-fluoro-4-sulfamoylbenzyl)-1H-pyrazol-1-yl)thiazole-4-carboxylic acid] and `NS(=O)(=O)c1ccc(Cc2c(-c3ccc(F)c(-c4ncc[nH]4)c3)nn(-c3nc(C(=O)O)cs3)c2CC2CC2)cc1F` [Compound 159, 2-(5-(cyclopropylmethyl)-3-(4-fluoro-3-(1H-imidazol-2-yl)phenyl)-4-(3-fluoro-4-sulfamoylbenzyl)-1H-pyrazol-1-yl)thiazole-4-carboxylic acid] cannot be ordered by IC50: < 100 nM for the first, < 100 nM for the second.

`NS(=O)(=O)c1ccc(Cc2c(-c3ccc(F)c(-c4nc5ccccc5[nH]4)c3)nn(-c3nc(C(=O)O)cs3)c2CC2CC2)cc1F` [Compound 160, 2-(3-(3-(1H-benzo[d]imidazol-2-yl)-4-fluorophenyl)-5-(cyclopropylmethyl)-4-(3-fluoro-4-sulfamoylbenzyl)-1H-pyrazol-1-yl)thiazole-4-carboxylic acid] and `Cc1ncc(-c2cc(-c3nn(-c4nc(C(=O)O)cs4)c(CC4CC4)c3Cc3ccc(S(N)(=O)=O)c(F)c3)ccc2F)[nH]1` [Compound 161, 2-(5-(cyclopropylmethyl)-3-(4-fluoro-3-(2-methyl-1H-imidazol-5-yl)phenyl)-4-(3-fluoro-4-sulfamoylbenzyl)-1H-pyrazol-1-yl)thiazole-4-carboxylic acid] cannot be ordered by IC50: < 100 nM for the first, < 100 nM for the second.

`Cc1ccc(C#Cc2cccc(-c3nn(-c4nc(C(N)=O)cs4)c(CC4CC4)c3Cc3ccc(S(N)(=O)=O)c(F)c3)c2)s1` [Compound 163, 2-(5-(cyclopropylmethyl)-4-(3-fluoro-4-sulfamoylbenzyl)-3-(3-((5-methylthiophen-2-yl)ethynyl)phenyl)-1H-pyrazol-1-yl)thiazole-4-carboxamide] and `Cc1cc(-c2cccc(-c3nn(-c4nc(C(=O)O)cs4)c(CC4CC4)c3Cc3ccc(S(N)(=O)=O)c(F)c3)c2)ccc1Cl` [Compound 170, 2-(3-(4′-chloro-3′-methyl-[1,1′-biphenyl]-3-yl)-5-(cyclopropylmethyl)-4-(3-fluoro-4-sulfamoylbenzyl)-1H-pyrazol-1-yl)thiazole-4-carboxylic acid] fall in the same range of IC50: 1000 to 57000 nM for the first, 1000 to 57000 nM for the second.

Compared with `NS(=O)(=O)c1ccc(Cc2c(-c3cccc(-c4ccc(C5CC5)c(F)c4)c3)nn(-c3nc(C(=O)O)cs3)c2CC2CC2)cc1F` [Compound 171, 2-(3-(4′-cyclopropyl-3′-fluoro-[1,1′-biphenyl]-3-yl)-5-(cyclopropylmethyl)-4-(3-fluoro-4-sulfamoylbenzyl)-1H-pyrazol-1-yl)thiazole-4-carboxylic acid], `COc1ccc(-c2cccc(-c3nn(-c4nc(C(=O)O)cs4)c(CC4CC4)c3Cc3ccc(S(N)(=O)=O)c(F)c3)c2)cc1Cl` [Compound 172, 2-(3-(3′-chloro-4′-methoxy-[1,1′-biphenyl]-3-yl)-5-(cyclopropylmethyl)-4-(3-fluoro-4-sulfamoylbenzyl)-1H-pyrazol-1-yl)thiazole-4-carboxylic acid] is lower in IC50: 1000 to 57000 nM for the first, 100 to 1000 nM for the second.

Compound `Cc1ccc(C#Cc2cccc(-c3nn(-c4nc(C(=O)NS(C)(=O)=O)cs4)c(CC4CC4)c3Cc3ccc(S(N)(=O)=O)c(F)c3)c2)s1` [Compound 180, 2-(5-(cyclopropylmethyl)-4-(3-fluoro-4-sulfamoylbenzyl)-3-(3-((5-methylthiophen-2-yl)ethynyl)phenyl)-1H-pyrazol-1-yl)-N-(methylsulfonyl)thiazole-4-carboxamide] has an IC50 of 1000 to 57000 nM.
